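The compound was tested at five concentrations on cells cultured in 96-well plates, with a 48-hour exposure period. GI50 is the concentration that inhibits growth by half.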 Calls of active or inactive are those of the source. Rule as the data show it: active = GI50 up to about 1.1 µM and inactive = higher.
Experiments:
Experiment in all cases: inhibition of tumour cell growth, NCI panel, 48 h
[1] = system: LXFL 529
[2] = system: HOP-92
[3] = system: SK-OV-3
[4] = system: NCI-H226
[5] = system: HCT-116
[6] = system: EKVX
[7] = system: IGROV-1
[8] = system: NCI-H522
[9] = system: NCI-H23
[10] = system: OVCAR-5
[11] = system: HOP-62
[12] = system: SK-MEL-28
[13] = system: HL-60
[14] = system: ACHN
[15] = system: A549

Measured: GI50

O=c1nc(NC(c2ccccc2)(c2ccccc2)c2ccccc2)ccn1CCNCCn1ccc(NC(c2ccccc2)(c2ccccc2)c2ccccc2)nc1=O
inactive: [1] 5.26 µM | [2] 5.45 µM | [3] 19.6 µM | [4] 14.5 µM | [5] 3.92 µM | [6] 18.7 µM | [7] 5.15 µM | [8] 4.66 µM | [9] 12.5 µM | [10] 31 µM | [11] 15.5 µM | [12] 6.07 µM | [13] 2.41 µM | [14] 40.6 µM | [15] 26.2 µM

CC1CC2C(=O)N(c3ccccc3)C(=O)C2c2c1c1ccccc1n2Cc1ccccc1 (stereo not given)
inactive: [1] > 100 µM | [2] 9.84 µM | [3] > 100 µM | [4] 33.3 µM | [5] 29.3 µM | [6] > 100 µM | [7] > 100 µM | [8] 17.7 µM | [10] > 100 µM | [11] > 100 µM | [13] 10.5 µM | [14] 39.1 µM | [15] 32.1 µM

CCOc1ccc2c(c1)[n+]([O-])c(-c1ccc(Cl)cc1)c(N)[n+]2[O-]
inactive: [1] 87.7 µM | [2] > 100 µM | [3] > 100 µM | [4] > 100 µM | [5] > 100 µM | [6] 95.7 µM | [7] > 100 µM | [8] 34.4 µM | [9] > 100 µM | [10] > 100 µM | [11] > 100 µM | [12] > 100 µM | [13] 44 µM | [14] > 100 µM | [15] > 100 µM

CCOC(=O)CC[C@H](NC(=O)c1nc[nH]c1[N+](=O)[O-])C(=O)OCC
inactive: [1] > 100 µM | [2] > 100 µM | [3] > 100 µM | [4] > 100 µM | [5] > 100 µM | [6] > 100 µM | [7] > 100 µM | [8] > 100 µM | [9] > 100 µM | [11] > 100 µM | [12] > 100 µM | [13] > 100 µM | [14] > 100 µM | [15] > 100 µM

CCCCCCCCCCCC(=O)OCC1OC(n2cc(F)c(=O)[nH]c2=O)C(N)C(OC(=O)CCCCCCCCCCC)C1O (stereo not given)
inactive: [1] 33.9 µM | [2] 36.2 µM | [3] > 100 µM | [5] 88.1 µM | [6] > 100 µM | [8] 31.6 µM | [9] > 100 µM | [11] > 100 µM | [12] > 100 µM | [13] 29.6 µM | [14] > 100 µM | [15] > 100 µM

O=C(CCc1nnc(S)[nH]1)Nc1ccccc1Cl
inactive: [1] > 100 µM | [2] > 100 µM | [3] > 100 µM | [4] > 100 µM | [5] > 100 µM | [6] > 100 µM | [7] > 100 µM | [8] > 100 µM | [9] > 100 µM | [10] > 100 µM | [11] > 100 µM | [12] > 100 µM | [13] > 100 µM | [14] > 100 µM | [15] > 100 µM

N#C/C(c1nc2ccccc2[nH]1)=c1\s/c(=C/c2ccc(Cl)cc2)c(=O)n1-c1ccccc1
inactive: [1] > 100 µM | [2] > 100 µM | [3] > 100 µM | [4] > 100 µM | [5] > 100 µM | [6] > 100 µM | [7] 15.7 µM | [8] > 100 µM | [9] > 100 µM | [10] > 100 µM | [11] > 100 µM | [12] > 100 µM | [13] > 100 µM | [14] > 100 µM | [15] > 100 µM

O=c1[nH]cc(COCCCO)c(=O)[nH]1
inactive: [1] > 100 µM | [2] > 100 µM | [3] > 100 µM | [4] > 100 µM | [5] > 100 µM | [6] > 100 µM | [7] > 100 µM | [8] > 100 µM | [9] 53.5 µM | [10] > 100 µM | [11] > 100 µM | [12] > 100 µM | [13] > 100 µM | [14] > 100 µM | [15] > 100 µM

CCOC(=O)/C(Br)=C1\OC(=O)c2ccccc2-c2ccccc21
inactive: [1] 29.4 µM | [2] 24.3 µM | [3] 34 µM | [4] 23.4 µM | [5] 43.3 µM | [6] > 100 µM | [7] 63.5 µM | [8] 23 µM | [9] 57.8 µM | [10] > 100 µM | [11] 24.2 µM | [12] 61.4 µM | [13] 13.3 µM | [14] 52.6 µM | [15] 40.3 µM

c1ccc2c3c([nH]c2c1)C1(CCCCC1)c1c([nH]c2ccccc12)C31CCCCC1
inactive: [1] 40.8 µM | [2] 20.4 µM | [3] 18.2 µM | [4] 27.5 µM | [5] 15.7 µM | [6] 26.2 µM | [7] 31.3 µM | [8] 30 µM | [9] 31 µM | [10] > 100 µM | [11] 19.5 µM | [12] 37.1 µM | [13] > 100 µM | [14] 17.5 µM | [15] 39.3 µM

O=[N+]([O-])c1ccc(N2C[N+](c3ccccc3)=NC(c3ccccc3)=N2)cc1
inactive: [1] 30.2 µM | [2] 35.7 µM | [3] 48.9 µM | [4] > 100 µM | [5] 23.3 µM | [7] 41.2 µM | [8] 25.6 µM | [9] 34 µM | [10] 73.1 µM | [11] 17.8 µM | [12] > 100 µM | [13] 38.2 µM | [14] 19.3 µM | [15] 34.6 µM

O=C(O)CCCCCOc1cccnc1/C=N/NC1=NCCN1
inactive: [1] > 100 µM | [2] > 100 µM | [3] > 100 µM | [4] > 100 µM | [5] > 100 µM | [6] > 100 µM | [7] > 100 µM | [8] > 100 µM | [9] > 100 µM | [10] > 100 µM | [11] > 100 µM | [12] > 100 µM | [13] > 100 µM | [14] > 100 µM | [15] > 100 µM

OC1OCC(COc2cc(Cl)c(Cl)cc2Cl)OC1O (stereo not given)
inactive: [1] 46.8 µM | [2] 56.1 µM | [3] 88.1 µM | [4] 41.5 µM | [5] 18.9 µM | [6] 34.3 µM | [7] 80.9 µM | [8] 23.6 µM | [9] 59.2 µM | [10] > 100 µM | [11] 76.7 µM | [12] 65.3 µM | [13] 26.2 µM | [14] 25.3 µM | [15] 55 µM

NNC(=O)CCC(=O)NC1C2CC3CC(C2)CC1C3 (stereo not given)
inactive: [1] > 100 µM | [2] > 100 µM | [3] > 100 µM | [4] > 100 µM | [5] > 100 µM | [7] > 100 µM | [8] > 100 µM | [9] > 100 µM | [10] > 100 µM | [11] > 100 µM | [12] > 100 µM | [13] > 100 µM | [14] > 100 µM | [15] > 100 µM

COc1ccc(OCC(=O)O)c2c1CCC(C(C)C)C2=O (stereo not given)
inactive: [1] > 100 µM | [2] 80.2 µM | [3] > 100 µM | [5] > 100 µM | [6] > 100 µM | [7] > 100 µM | [8] > 100 µM | [9] > 100 µM | [10] > 100 µM | [11] > 100 µM | [12] > 100 µM | [13] > 100 µM | [14] > 100 µM | [15] > 100 µM

CC(=O)OCC1OC(OC2CC3C(C)(C)C(OC(C)=O)CC[C@]3(C)C3CCC45CC4(CC[C@H]5C(C)CC(O)[C@@H](O)C(C)(C)O)[C@]23C)C(O)C(O)C1O (stereo not given in full)
inactive: [1] 5.65 µM | [2] 7.01 µM | [3] 5.83 µM | [4] 7.18 µM | [5] 7.64 µM | [6] 7 µM | [7] 7.36 µM | [8] 1.82 µM | [9] 8.53 µM | [10] 7.66 µM | [11] 5.86 µM | [12] 7.4 µM | [13] 3.5 µM | [14] 7.98 µM | [15] 8.02 µM

CC1CC[C@]2(C(=O)O)CCC3(C)C(=CCC4[C@@]5(C)CC[C@H](OS(=O)(=O)c6ccccc6)C(C)(C)C5CC[C@]43C)[C@@H]2[C@H]1C (stereo not given in full)
inactive: [1] 69.8 µM | [2] > 100 µM | [3] > 100 µM | [4] 62.2 µM | [5] 27.2 µM | [6] 55.1 µM | [7] > 100 µM | [8] 53.8 µM | [9] 52.7 µM | [10] > 100 µM | [11] > 100 µM | [12] > 100 µM | [14] 52.2 µM | [15] 36.6 µM

Cc1nc2ccccc2c(=O)[nH]1
inactive: [1] > 100 µM | [2] > 100 µM | [3] > 100 µM | [4] > 100 µM | [5] > 100 µM | [6] > 100 µM | [7] > 100 µM | [8] > 100 µM | [9] > 100 µM | [10] > 100 µM | [11] > 100 µM | [12] > 100 µM | [13] > 100 µM | [14] > 100 µM | [15] > 100 µM

— ChEMBL document CHEMBL1201862, “PubChem BioAssay data set” (2004)
